Each structure is given as a SMILES string. Like-named read-outs stand apart in the source and are kept apart here.

One may read the IC50 as the concentration needed to halve the response being measured.

Data set [1] can be described thus: Drug-like parameters: absorption and metabolic stability. In kind it is in vitro ADME.
In data set [2] the target is P-gp (Homo sapiens, UniProt P08183). The experiment in a line: Drug-like parameters: P-gp efflux. In kind it is in vitro ADME.
Data set [3] has as its system intracellular forms of Leishmania (L. amazonensis amastigotes in BMDMs). The experiment in a line: Dose response in BMDMs infected with L. amazonensis amastigotes, released amastigotes transformed to promastigotes, AlamarBlue. The class given is cell-based. The protocol:
(§1) FIG. 5. Dose response curves (IC50) of FX40 (∘) and the novel derivative compound FX104 (●). (A) BMDMs infected with L. amazonensis amastigotes were treated with various concentrations of the indicated compound for 72 h. BMDMs were lysed and released amastigotes were transformed to promastigotes for 48 h at 26° C. IC50 values were calculated by quantitation of % promastigote growth using AlamarBlue. (B) Dose response of uninfected BMDMs to compounds. (C) A table showing selectivity criteria for drug efficacy studies. (D) A table showing a summary of high throughput screening.
(§2) To validate the […] efficacy of lead compounds against intracellular amastigotes in macrophages, primary bone marrow-derived macrophages (BMDMs) from mice were obtained and infected them with L. amazonensis amastigotes followed by incubation for 72 h with LHR1 antagonists or amphotericin B which kills intracellular Leishmania, as a positive control. Cells were then fixed and stained with DAPI which permits visualization of the host macrophage nuclei and parasite nuclei and kinetoplasts. Images collected with fluorescent microscopy were used to determine the ratio between total number of parasites and total number of host cells per treatment. Toxicity to host cells were measured by AlamarBlue viability assays. […] (Sch. 1 and FIG. 4A) The structure of FX104 is shown in Scheme 1.
Background: Alamar Blue is a resazurin reagent that responds to reducing activity.

The subject of data set [4] is BMDMs. The experiment in a line: Toxicity to uninfected host BMDMs (AlamarBlue viability). The note with it: even at 40-fold greater concentrations. In kind it is cell-based, mouse. The protocol: as §1, §2
Data set [5] in a line: Drug-like parameters: Log P and solubility. The class given is physicochemical.
For data set [6], the system named is intracellular L. donovani. The note with it: cited from earlier work.
Data set [7] has as its system intracellular forms of Leishmania (L. amazonensis amastigotes in BMDMs). The note with it: benchmark value; read-out: IC50 against intra-macrophage L. amazonensis; cited from earlier work.

Sequence of P-gp (P08183 whole entry): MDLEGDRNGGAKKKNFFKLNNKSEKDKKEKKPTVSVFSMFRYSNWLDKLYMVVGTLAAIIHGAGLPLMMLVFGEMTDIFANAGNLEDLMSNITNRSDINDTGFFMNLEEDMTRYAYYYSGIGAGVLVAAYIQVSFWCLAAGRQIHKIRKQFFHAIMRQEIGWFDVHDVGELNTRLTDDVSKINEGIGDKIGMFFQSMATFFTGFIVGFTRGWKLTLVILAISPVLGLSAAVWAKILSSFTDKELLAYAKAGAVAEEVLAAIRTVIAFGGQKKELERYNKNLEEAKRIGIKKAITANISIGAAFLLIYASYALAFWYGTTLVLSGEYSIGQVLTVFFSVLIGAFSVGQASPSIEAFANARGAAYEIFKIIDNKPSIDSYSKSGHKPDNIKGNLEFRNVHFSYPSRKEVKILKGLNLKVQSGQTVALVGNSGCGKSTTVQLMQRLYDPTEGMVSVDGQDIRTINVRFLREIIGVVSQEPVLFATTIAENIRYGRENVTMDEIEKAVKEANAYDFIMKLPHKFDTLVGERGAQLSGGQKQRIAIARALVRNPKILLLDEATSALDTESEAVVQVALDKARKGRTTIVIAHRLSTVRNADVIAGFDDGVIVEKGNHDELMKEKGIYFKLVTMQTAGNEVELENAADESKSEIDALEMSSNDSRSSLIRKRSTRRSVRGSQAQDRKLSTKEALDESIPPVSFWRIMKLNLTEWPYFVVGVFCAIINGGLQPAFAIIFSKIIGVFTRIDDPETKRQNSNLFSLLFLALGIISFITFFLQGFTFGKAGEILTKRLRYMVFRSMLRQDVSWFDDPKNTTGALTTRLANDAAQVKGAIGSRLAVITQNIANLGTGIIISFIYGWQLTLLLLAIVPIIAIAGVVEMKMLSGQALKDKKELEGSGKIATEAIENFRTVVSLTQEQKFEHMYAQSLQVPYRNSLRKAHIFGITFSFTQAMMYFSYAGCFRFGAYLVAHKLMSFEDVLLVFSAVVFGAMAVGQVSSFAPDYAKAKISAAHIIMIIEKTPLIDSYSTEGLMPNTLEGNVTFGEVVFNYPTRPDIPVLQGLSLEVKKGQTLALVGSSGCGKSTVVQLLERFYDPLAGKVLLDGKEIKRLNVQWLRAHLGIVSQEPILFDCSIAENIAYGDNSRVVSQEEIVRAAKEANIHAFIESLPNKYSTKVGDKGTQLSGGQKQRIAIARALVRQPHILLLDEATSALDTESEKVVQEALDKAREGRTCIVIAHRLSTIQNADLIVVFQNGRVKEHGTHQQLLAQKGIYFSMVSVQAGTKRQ

For the compound `Cc1ccc([C@]2(NCCN(C)C)OC(=O)c3cccc(F)c32)cc1C` [FX104], in data set [1], the absorption result is listed as “better” and the metabolic stability result was “better”. The P-gp efflux result in data set [2] is reported as “decreased”. Also, the half-maximal inhibitory concentration (IC50) in data set [3] (BMDM, BMDMs infected with L. amazonensis amastigotes, 72 h, read-out: IC50 against intracellular forms of Leishmania) was 0.25 µM. For the same compound, in data set [3] (FX104 versus FX40), the “fold more effective against intracellular forms of Leishmania than FX40” value is listed as “over 30 fold”. The “toxicity in BMDMs” value in data set [4] was “little or no toxicity”. Besides, the solubility result in data set [5] is “better”.

As to `C[C@@H]1[C@H](O)[C@@H](C)/C=C/C=C/C=C/C=C/C=C/C=C/C=C/[C@H](O[C@@H]2O[C@H](C)[C@@H](O)[C@H](N)[C@@H]2O)C[C@@H]2O[C@](O)(C[C@@H](O)C[C@@H](O)[C@H](O)CC[C@@H](O)C[C@@H](O)CC(=O)O[C@H]1C)C[C@H](O)[C@H]2C(=O)O` [Amphotericin B], the IC50 is 0.02 to 0.06 µM in data set [6] (benchmark value, read-out: IC50 for intra-macrophage L. donovani) and 0.05 to 0.1 µM in data set [7]. For the same compound, the efficacy in data set [6] (benchmark, intra-macrophage Leishmania) is recorded as > 90%.
